The assay concerns zebrafish cartilage. Put plainly: Evaluation of cartilage protection efficacy: fluorescence intensity of cartilage in dexamethasone-induced zebrafish cartilage damage model. It counts as in vivo. Conditions: for Fluorescence intensity of cartilage (pixel, mean ± SE): n = 10.

For Chondroitin sulfate A sodium salt, the “Fluorescence intensity of cartilage (pixel, mean ± SE)” value (Table 2, 1000 μg/mL) amounted to 277530 ± 20981 pixel. For the same substance, where the note is “Table 3, 1000 μg/mL”, the “Increased cartilage protection efficacy (%) compared with the model group” value is recorded as 44% and the “Fluorescence intensity of cartilage (pixel, mean ± SE)” value is listed as 296517 ± 25160 pixel.

These data come from patent US20250025518A1, “USE OF BIFIDOBACTERIUM LACTIS BL-99 IN PROTECTION OF CARTILAGE” (Inner Mongolia Yili Industrial Group Co., Ltd., priority 2021, published 2025).
